Assay results reported in patent US11965159B2, “Compositions and methods for regulating proteins and nucleic acids activities” (THE BROAD INSTITUTE, INC., priority 2019, dated 2024).
Entries after “also recorded” stand apart in the source; their conditions may differ.

Assays:
[1] = system: CRISPR-Cas9 based immunity in S. aureus RN4220; assay: Bacterial resistance study against phage (CRISPR immunity, OD600 growth curves); format: cell-based; details: 5-20 μM, 16 h, MOI 1
Procedure: Bacterial study. Plasmid pRH248 harboring SpCas9, tracrRNA and a single-spacer array ([…]) (SEQ ID NO:7) targeting phage DNM474 was constructed via BsaI cloning onto pDB114 as described in Heler et al 6. Plate reader growth curves of bacteria infected with phage were conducted as described previously with minor modifications 7. Overnight cultures were diluted 1:100 into 2 ml of fresh BHI supplemented with appropriate antibiotics and 5 mM CaCl2) and grown to an OD600 of ˜0.2. Immune cells carrying pRH248 were diluted with cells lacking CRISPR-Cas in a 1:10,000 ratio. Following a 15-minute pre-incubation with DMSO or with varying amounts of inhibitors (5-20 μM), the cultures were infected with DNM474 at an initial MOI of 1. To produce plate reader growth curves, 200 μL of infected cultures, normalized for OD600, were transferred to a 96-well plate in triplicate. OD600 measurements were collected every 10 minutes for 16 hours. Similarly, growth curves to evaluate the toxicity of the compounds at 20 μM (FIG. 32) were conducted on cultures lacking CRISPR in the absence of phage.
Bacterial study. […] Plate reader growth curves of bacteria infected with phage were conducted as described previously with minor modifications^7. […] To produce plate reader growth curves, 200 μL of infected cultures, normalized for OD600, were transferred to a 96-well plate in triplicate. […]

[2] = biological target: T1, dCas9-cytidine deaminase conjugate (BE3) (UniProt P14739+P38483+Q99ZW2, D10A); assay: BE3 base-editing of EMX1 gene in HEK293T cells; format: cell-based; details: 1.25-20 μM, 72 h; BE3:gRNA ribonucleoprotein delivery
T1 construct: His6 (N); made in house; host or cells: E. coli BL21 Star (DE3); purified protein lipofected as BE3:gRNA RNP into HEK293T cells
Procedure: Protein transfection of base editor BE3 into HEK293T cells. HEK293T cells were seeded on 48-well BioCoat® poly-D-lysine plates (Corning®) in 250 μL of antibiotic-free medium and transfected at ˜70% confluency. Prior to protein transfection, cells were incubated with 2 μL of DMSO-suspended BRD7087 or BRD5779 at the indicated concentration for 2-3 hours. BE3 protein was incubated with 1.1× molar excess of EMX1-targeting sgRNA at a final concentration ratio of 200 nM: 220 nM (based on a total well volume of 275 μL). The complex was mixed with 0.2 μL of compound for five minutes, incubated with 1.5 μL Lipofectamine™ 2000 (THERMOFISHER) and transfected according to the manufacturer's protocol plasmid delivery. […]
Purifications and sequencing of genomic DNA. […] Barcoded samples were pooled and purified by gel extraction (QIAGEN) before quantification using the Qubit™ dsDNA HS Kit (THERMOFISHER) and qPCR (KAPA BioSystems) according to the manufacturer's instructions. Sequencing of pooled samples was performed using a single-end read from 260 to 300 bases on the MiSeq™ ([…]) according to the manufacturer's instructions.
Analysis of base-edited sequences. Nucleotide frequencies were analyzed using a previously described MATLAB script 5. Briefly, the reads were aligned to the reference sequence via the Smith-Waterman algorithm. […]

SMILES | blockage of CRISPR-Cas9 immunity (sensitization of immune bacteria to phage, OD600) [1] | inhibition of BE3-mediated base-editing (C→T conversion, EMX1) [2]
COc1ccc(-c2ccc3c(c2)[C@H]2[C@H](CCN2Cc2ccncc2)[C@@H](CO)N3)cc1 [BRD5779, ((3aR,4S,9bR)-8-(4-Methoxyphenyl)-1-(pyridin-4-ylmethyl)-2,3,3a,4,5,9b-hexahydro-1H-pyrrolo[3,2-c]quinolin-4-yl)methanol] | dose-dependent blockage of CRISPR-Cas9 based immunity; also recorded: able to sensitize the immune bacterial cells against target phage in a dose-dependent manner | efficient and dose-dependent inhibition
OC[C@H]1Nc2ccc(-c3cccc(F)c3)cc2[C@H]2[C@@H]1CCN2Cc1ccncc1 [BRD7087, ((3aR,4S,9bR)-8-(3-Fluorophenyl)-1-(pyridin-4-ylmethyl)-2,3,3a,4,5,9b-hexahydro-1H-pyrrolo[3,2-c]quinolin-4-yl)methanol] | dose-dependent blockage of CRISPR-Cas9 based immunity; also recorded: able to sensitize the immune bacterial cells against target phage in a dose-dependent manner; also recorded: higher activity | efficient and dose-dependent inhibition
